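Protocol summary: plate cells (96-well), add compound at 5 concentrations, incubate 48 h, interpolate endpoints linearly. The concentration for 50% growth inhibition is given as GI50. At the TGI there is no net growth.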
Assays:
Assay in all cases: inhibition of tumour cell growth, NCI panel, 48 h
[1] = tested on: SK-MEL-5 melanoma
[2] = tested on: IGROV1 ovarian
[3] = tested on: RPMI-8226 leukemia
[4] = tested on: KM12 colon
[5] = tested on: MALME-3M melanoma
[6] = tested on: T-47D breast
[7] = tested on: SW-620 colon
[8] = tested on: OVCAR-8 ovarian
[9] = tested on: OVCAR-4 ovarian
[10] = tested on: TK-10 renal

SMILES | TGI [1] [µM] | TGI [2] [µM] | TGI [3] [µM] | TGI [4] [µM] | TGI [5] [µM] | TGI [6] [µM] | TGI [7] [µM] | TGI [8] [µM] | TGI [9] [µM] | TGI [10] [µM] | GI50 [1] [µM] | GI50 [2] [µM] | GI50 [3] [µM] | GI50 [4] [µM] | GI50 [6] [µM] | GI50 [7] [µM] | GI50 [8] [µM] | GI50 [9] [µM] | GI50 [10] [µM] | GI50 [5] [µM]
O=C(CCCn1ccnc1[N+](=O)[O-])NCCn1cnc([N+](=O)[O-])c1 | > 100 | > 100 | > 100 | > 100 | > 100 | > 100 | > 100 | > 100 | > 100 | > 100 | – | – | – | – | – | – | – | – | – | –
C/C1=C\CC[C@@](C)(O)[C@H]2C[C@H](CC/C(C)=C/CC1)C1(CC1)C(=O)O2 | 35.1 | 39.7 | 35.8 | > 100 | – | > 100 | 46.2 | 40.8 | > 100 | > 100 | 18.6 | 18.9 | 14.2 | 37.2 | 36.5 | 21.8 | 20 | 63.4 | 32.9 | –
COC(=O)Nc1nc2c(OC)c(OC)c(OC)cc2[nH]1 | > 100 | > 100 | > 100 | > 100 | > 100 | > 100 | > 100 | > 100 | > 100 | > 100 | 9.34 | 22.1 | 35.6 | 5.48 | 33.2 | 5.8 | 38.7 | 64.2 | 66.6 | 16.4
CCOC(=O)CNC(SC)=C(C#N)C#N | > 100 | > 100 | > 100 | > 100 | > 100 | – | > 100 | > 100 | > 100 | > 100 | – | – | – | – | – | – | – | – | – | –
O=C1C2C(C(=O)[N]1[Hg][c]1ccccc1)C1(Cl)C(Cl)=C(Cl)C2(Cl)C1(Cl)Cl (stereo not given) | 2.17 | 3.63 | 5.94 | 21.5 | 3.02 | 1.58 | 1.8 | – | 4.15 | 2.86 | 1 | 1.2 | 1.64 | 8.7 | 0.225 | 0.464 | – | 1.09 | 1.51 | 1.32
CC(C)(C)c1ccc(C(=O)N/N=C/c2ccc(O)cc2O)cc1 | 3.4 | 12.4 | 20.9 | 2.48 | 5.19 | 32.6 | 13.1 | > 100 | 14.9 | > 53.5 | 0.913 | 0.411 | 0.784 | 0.418 | 0.786 | 0.62 | 0.54 | 0.238 | 0.73 | 0.478
NC(=O)Nc1ccc2ncnc(Nc3ccc(Cl)cc3)c2c1 | 30.8 | 34.3 | > 88.8 | > 100 | > 77.9 | > 85.1 | > 100 | > 96.6 | > 100 | 23.4 | 13.6 | 9.06 | 24.3 | 33.4 | 10.2 | 42.8 | 20.4 | 11.8 | 1.72 | 28.2
NC1=CC(=O)C(=O)c2cccnc21 | 2.84 | 23.1 | 9.91 | 25.8 | 4.63 | 9.73 | 24.3 | 16.6 | 8.15 | 68.2 | 1.51 | 7.91 | 2.65 | 12 | 3.68 | 8.67 | 3.21 | 2.59 | 29.3 | 2.22
CCC[CH2][Sn]1([CH2]CCC)[O]C(=O)C[S]1 | 3 | 4.16 | 3.57 | 10.9 | 2.52 | – | 3.13 | 5.46 | 4.67 | 2.92 | 1.44 | 1.86 | 0.455 | 2.6 | – | 0.984 | 2.11 | 2.16 | 1.55 | 1.14
C#CCOCn1cnc2ncnc(Cl)c21 | > 100 | > 100 | > 100 | > 100 | > 100 | – | > 100 | > 100 | > 100 | > 100 | – | – | – | – | – | – | – | – | – | –
BrP(NC1CCCCCC1)(c1ccccc1)(c1ccccc1)c1ccccc1 | 3.18 | 21.7 | 5.41 | 3.37 | 12.5 | 7.76 | 13.6 | 10.7 | – | 21.3 | – | – | – | – | – | – | – | – | – | –
CN(C)c1nc(N(C)C)nc(N(C)CN(C)c2nc(N(C)C)nc(N(C)C)n2)n1 | > 100 | > 100 | > 100 | > 100 | > 100 | – | > 100 | > 100 | > 100 | > 100 | – | – | – | – | – | – | – | – | – | –
COc1cc2c(cc1OCCCCC(=O)Nc1ccc(-c3nc4ccccc4s3)cc1)N=C[C@@H]1CCCN1C2=O | 3.17 | 2.27 | 3.96 | 12.4 | – | 10.1 | 4.03 | 4.5 | 27.9 | 7.97 | 1.76 | 0.695 | 1.45 | 2.94 | 1.96 | 1.64 | 1.57 | 2.82 | 3.2 | –
C[C@@H]1CN(Cc2ccc(/C=C/c3n[nH]c4ccc5nc(-c6cn[nH]c6C(F)(F)F)c6c(c5c34)CCCC6)cc2)C[C@H](C)O1 | 24.7 | 10.7 | – | 14.3 | 20.9 | 26.4 | 10.1 | 23.1 | 24.9 | 17.7 | 12.2 | 1.33 | – | 2.03 | 6.66 | 2.02 | 4.76 | 5.03 | 4.92 | 4.96
COc1cc(C2[C@H]3C(=O)N(c4ccc(Cc5ccc(N6C(=O)[C@@H]7ON(c8ccccc8)C(c8cc(OC)c(OC)c(OC)c8)[C@@H]7C6=O)cc5)cc4)C(=O)[C@H]3ON2c2ccccc2)cc(OC)c1OC (stereo not given in full) | > 100 | > 100 | > 100 | > 100 | > 100 | – | > 100 | > 100 | > 100 | > 100 | – | – | – | – | – | – | – | – | – | –
